Common to all, as to assay type: physicochemical
The nature of data set [1]: Excessive drying of form XXIV and/or form XIX. The note with it: typically temperatures >50° C. under vacuum. How it is done: Form XVIII is formed upon excessive drying of form XXIV and/or form XIX (e.g. prepared according to any one of examples 1.1 to 1.4 herein). Typically, drying is performed at temperatures >50° C. under vacuum.
Data set [2] in a line: Polarized light microscopy (PLM), crystal habit. The text has this: Crystal habits of zongertinib forms XXIV, XIX and XX have been elucidated using polarized light microscopy. Depending on the starting material, form XVIII can be obtained in different crystal shapes.
Data set [3] in a line: Thermal gravimetric analysis (TGA). The note with it: ambient to 600° C., heating rate 20° C./min. The method, then: TGA was performed with a TA Instruments TGA 550. Samples (5 mg) were heated in aluminium pans with a sealed aluminium lid from ambient temperature to 600° C. at a heating rate of 20° C./min. Processing was completed using TRIOS software.
The nature of data set [4]: Form IV slurry experiments in aqueous organic solvents with heat-cool cycles, solids analyzed by XRPD. The note with it: 20 to 50° C. heat-cool cycles. How it is done: Zongertinib form IV (e.g. prepared according to any one of the procedures of reference example 1.3) was slurried in different aqueous organic solvent systems (12V, composition according to table 1) at a temperature ranging from 20 to 50° C. using a magnetic stir bar. Heat-cool-cycles were conducted using automation available on the Junior robot and as per the below program: • 1. Set stirring to 350 rpm (by means of magnetic stir bars) • 2. Heat to 50° C. (10° C./minute) • 3. Hold at 50° C. for 150 minutes • 4. Cool to 20° C. (−1° C./minute) • 5. Hold at 20° C. for 120 minutes • 6. Heat to 50° C. (5° C./minute) • 7. Hold at 50° C. for 120 minutes • 8. Cool to 20° C. (−1° C./minute) • 9. Set stirring to 0 rpm • 10. Hold at 20° C. for 16 hrs
The solids were collected and analyzed by XRPD.
XRPD was performed with a Bruker D8 Discover X-ray diffractometer. The instrument detector allows for two-dimensional diffractograms to be acquired. Solid samples were placed on a zero-background diffraction plate. The results were processed using DIFFRAC.EVA software. The diffraction pattern was integrated from two-dimensional to one-dimensional. The Kα2 contribution was stripped, no smoothing or background correction was performed. A typical precision of the 2-Theta values is in the range of ±0.2° 2-Theta, preferably in the range of ±0.1° 2-Theta. Thus, a reflection that usually appears at 7.0 2-Theta for example can appear between 6.8° and 7.2° 2-Theta, preferably between 6.9° and 7.1° 2-Theta on most X-ray diffractometers under standard conditions.

The nature of data set [5]: Suspension of form IV and form III stirred at 35° C. for 18 hrs, solid analyzed by XRPD. As to conditions: mixture of form IV and form III. How it is done: A suspension of zongertinib form IV (e.g. prepared according to any one of the procedures of reference example 1.3) and zongertinib form III (e.g. prepared according to reference example 1.2) in 20V of 1:1 (vol:vol) IPAc/water was stirred using overhead agitation at 35° C. for 18 hrs. The solid was collected and analyzed by XRPD confirming receipt of form XX.
A suspension of zongertinib form IV (e.g. prepared according to any one of the procedures of reference example 1.3) and zongertinib form III (e.g. prepared according to reference example 1.2) in 20V of water was stirred using overhead agitation at 35° C. for 18 hrs. The solid was collected and analyzed by XRPD confirming receipt of form XX.
XRPD was performed with a Bruker D8 Discover X-ray diffractometer. The instrument detector allows for two-dimensional diffractograms to be acquired. Solid samples were placed on a zero-background diffraction plate. The results were processed using DIFFRAC.EVA software. The diffraction pattern was integrated from two-dimensional to one-dimensional. The Kα2 contribution was stripped, no smoothing or background correction was performed. A typical precision of the 2-Theta values is in the range of ±0.2° 2-Theta, preferably in the range of ±0.1° 2-Theta. […]

Each structure is given as a SMILES string.

This note sets out measurements from patent US20250376476A1, “Crystalline forms of a HER2 tyrosine kinase inhibitor” (Boehringer Ingelheim International GmbH, priority 2024, published 2025).

Consider `C=CC(=O)NC1CCN(c2ncc3ncnc(Nc4ccc(Oc5ccc6c(c5)ncn6C)c(C)c4)c3n2)CC1` [Form XXIV, zongertinib], for which the “Form obtained upon excessive drying” value in data set [1] is “Form XVIII”. For the same compound, in data set [2] (listed as XXIV), the “Crystal Habit” value was “plate-shaped and lath shaped crystals”. The “TGA sample decomposition start temperature” value in data set [3] (listed as form XXIV) is “about 415 °C”.

`C=CC(=O)NC1CCN(c2ncc3ncnc(Nc4ccc(Oc5ccc6c(c5)ncn6C)c(C)c4)c3n2)CC1` [Form XX, zongertinib]: in data set [2] (listed as XX), the “Crystal Habit” value is “needle-shaped crystals”. The “TGA sample decomposition start temperature” value in data set [3] (listed as form XX) was “about 393 °C”.

Turning to `C=CC(=O)NC1CCN(c2ncc3ncnc(Nc4ccc(Oc5ccc6c(c5)ncn6C)c(C)c4)c3n2)CC1` [Form XVIII, zongertinib], the “Crystal Habit” value is “lath-shaped crystals” in data set [2] (listed as XVIII (drying of XIX)); “plate-shaped and lath shaped crystals” in data set [2] (listed as XVIII (drying of XXIV)). Besides, the “TGA sample decomposition start temperature” value in data set [3] (listed as form XVIII) is “about 394 °C”.

`C=CC(=O)NC1CCN(c2ncc3ncnc(Nc4ccc(Oc5ccc6c(c5)ncn6C)c(C)c4)c3n2)CC1` [Form IV, zongertinib]: the “XRPD results after slurry” value in data set [4] (12V 1:1 (vol:vol) ACN:water) was “Form XIX”; in data set [4] (12V 1:1 (vol:vol) EtOH:water), “Form XIX”; in data set [4] (12V 1:1 (vol:vol) IPAc:water), “Form XXIV”; in data set [4] (12V 2:1 (vol:vol) THF:water) it was “Form XXIV”. The “Solid form by XRPD after stirring suspension” value in data set [5] (20V of 1:1 (vol:vol) IPAc/water) and in data set [5] (20V of water) was “form XX” throughout.

As to `C=CC(=O)NC1CCN(c2ncc3ncnc(Nc4ccc(Oc5ccc6c(c5)ncn6C)c(C)c4)c3n2)CC1` [Form XIX, zongertinib], the “Crystal Habit” value in data set [2] (listed as XIX) is “lath-shaped crystals”. For the same compound, the “TGA sample decomposition start temperature” value in data set [3] (listed as form XIX) is “about 327 °C”.
